Like-named read-outs stand apart in the source and are kept apart here.
Assays:
[1] = target: serine protease of Paecilomyces lilacinus (Purpureocillium lilacinum, UniProt Q01471); type: biochemical
Description: (§1) Protease activity was determined by a modified procedure of Rinderknecht et al. (1968). Ten mg of Hide Powder Azure (Sigma) was incubated in 50 mM Sodium acetate buffer pH 6.0 with the sample in a final volume of 3 ml in small glass containers. Incubation was at 37 °C in a shaking waterbath (110 strokes(min) till the solution turned blue (between 5 and 30 minutes). Following incubation the samples were put on ice and centrifuged in 1.5 ml Eppendorf cups for 5 minutes at 14.000 g. The absorbance of the supernatant was measured at 595 nm on a Uvikon 940 spectrophotometer. Protease activity of the sample was measured in duplo, averaged and expressed as A₅₉₅ ml⁻¹hr⁻¹ after correction for the blank (Milli Q water).
Several protease inhibitors, SH reducing agents and metal ions were tested on the proteolytic activity of the protease: PMSF, E64, 1.10-phenantroline, pepstatine (Sigma); EDTA, cystein MgCl₂ and CaCl₂ (Merck); DTT (BioRad). The purified enzyme was incubated for 40 minutes at 4 °C with inhibitor. After incubation the protease-activity was determined as previously described. Final inhibitor concentration was 1 mM. Protease activity in the absence of inhibitor was expressed as 100 %.

[2] = system: proteolytic activity in the culture filtrate; assay: Inhibition of proteolytic activity in the culture filtrate by protease inhibitors; type: biochemical, Paecilomyces lilacinus
Description: as §1
To identify the nature of the protease the proteolytic activity in the culture filtrate was inhibited with several protease inhibitors. […] Purification of the serine protease(s) was first performed with Benzamidine-Sepharose, an affinity resin for serine proteases of class I (Pharmacia).

Paecilomyces lilacinus = assay: Catabolite repression of protease induction in liquid culture; type: cell-based; details: glucose 0.3 % added each day to MNNC (chitin as substrate); mycelium as inoculum; Figure 2
Description: In one experiment mycelium of Paecilomyces lilacinus was used as inoculum. Mycelium was obtained by centrifuging a 6 day old culture of conidia of P. lilacinus in MMNG for 45 minutes at 9000 g. Cultures were grown in a shaking waterbath for several days at 30 °C and 125 strokes per minute. Culture filtrates were obtained by centrifuging cultures for 45 min at 9000 g. Supernatants were concentrated using an Amicon (YM-10 filter) and clarified through a 0.22 µm-filter (Schleicher & Schuell). Pellets were freeze dried and the weigth of the mycelium was measured.
Protease activity was determined by a modified procedure of Rinderknecht et al. (1968). […] Incubation was at 37 °C in a shaking waterbath (110 strokes(min) till the solution turned blue (between 5 and 30 minutes). Following incubation the samples were put on ice and centrifuged in 1.5 ml Eppendorf cups for 5 minutes at 14.000 g. The absorbance of the supernatant was measured at 595 nm on a Uvikon 940 spectrophotometer. Protease activity of the sample was measured in duplo, averaged and expressed as A₅₉₅ ml⁻¹hr⁻¹ after correction for the blank (Milli Q water).
To see whether the fungus used glucose as carbon sourece, glucose concentrations were determined in the culture filtrate, of the fungus in MNNG (Figure 1). […]

[3] = 1 mM final, 40 minutes at 4 °C, Figure 7

Chain of serine protease of Paecilomyces lilacinus (Q01471 entry or part of it): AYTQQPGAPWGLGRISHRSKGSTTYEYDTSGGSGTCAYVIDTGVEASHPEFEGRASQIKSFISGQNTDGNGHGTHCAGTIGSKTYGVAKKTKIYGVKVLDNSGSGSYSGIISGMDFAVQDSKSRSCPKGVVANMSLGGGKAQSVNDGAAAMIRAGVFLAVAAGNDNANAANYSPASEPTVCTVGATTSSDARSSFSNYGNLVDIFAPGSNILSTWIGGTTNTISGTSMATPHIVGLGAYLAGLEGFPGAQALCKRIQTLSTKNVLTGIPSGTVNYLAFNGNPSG

Molecule | effect on the proteolytic activity of the purified protease [1, 3] | also measured
OC(CS)C(O)CS (centres unmarked) [DTT] | did not influence its activity | –
O=C(O)CN(CCN(CC(=O)O)CC(=O)O)CC(=O)O [EDTA] | – | effect on the proteolytic activity of the purified protease [1]: enhanced its activity
O=S(=O)(F)Cc1ccccc1 [PMSF] | – | inhibition of the proteolytic activity in the culture filtrate [2]: most of the protease activity present in the medium was inhibited; inhibition of the activity of the purified protease ([1]; inhibitor 1 mM final, 40 minutes at 4 °C, activity without inhibitor = 100 %, Figure 7): 100%
N[C@@H](CS)C(=O)O [cystein] | did not influence its activity | –
OC[C@H]1OC(O)[C@H](O)[C@@H](O)[C@@H]1O (some centres unmarked) [glucose] | – | induction of protease activity (Paecilomyces lilacinus): repressed
CaCl₂ [Ca⁺⁺] | lowered the protease activity slightly | –
MgCl₂ [Mg⁺⁺] | lowered the protease activity slightly | –
